{"source": "patent US20200384003A1", "about": "“TRITERPENOID-CONTAINING PHARMACEUTICAL COMPOSITION AND USE THEREOF” (SHANGHAI LANMU CHEMICALS CO., LTD., priority 2017, published 2020)", "key": {"[1]": {"assay": "Heat stability at 80° C. versus 4° C., HPLC and appearance (Example 18)", "type": "physicochemical", "description": "The heatl stabilities of inotodiol and trametenolic acid were tested, and lanosterol was used as a reference at the same time."}, "cataract": {"test_system": "cataract", "settings": "sustained-release lanosterol drug, dogs; cited from earlier work"}, "traumatic cataract": {"test_system": "traumatic cataract", "assay": "Therapeutic effect of eye ointment on traumatic cataract (Example 10)", "type": "in vivo, SD rats", "settings": "pictures before and after administration (FIG. 22-24, Table 10)"}, "[2]": {"assay": "Pharmacokinetic study, drug in aqueous humor after eye glass cavity injection (Example 5)", "type": "in vivo", "settings": "SD rats, 5 μl injected into each glass cavity, detected 10 days after the surgery", "description": "SD rats (about 10 weeks old, male or female) were anesthetized by intraperitoneal injection of pentobarbital sodium and pupil was dilated, then eye glass cavity injection surgery was performed. All animals were injected with the same kind of drugs in both eyes. The amount of drug injected into each glass cavity was 5 μl, and the number of test animals per drug formulation (Example 1, Example 2 and Comparative Example 1) was four, and the drug metabolism in the aqueous humor was detected 10 days after the surgery."}, "[3]": {"target": "T1, mutated lens protein (αB-crystallin R120G) (Homo sapiens, UniProt P02511, R120G)", "T1 construct": "expressed in transfected cells; host or cells: HeLa", "T1 sequence (P02511 1-175 R120G)": "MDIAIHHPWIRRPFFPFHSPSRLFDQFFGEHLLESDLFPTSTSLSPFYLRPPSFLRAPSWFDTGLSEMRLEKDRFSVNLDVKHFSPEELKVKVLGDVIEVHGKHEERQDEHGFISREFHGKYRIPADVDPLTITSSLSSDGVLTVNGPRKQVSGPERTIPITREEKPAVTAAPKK", "assay": "Intracellular mutated lens protein aggregation inhibition experiment in transfected HeLa cells (Example 21)", "type": "cell-based", "settings": "10 μM, treated 3.5 hours, then 6.5 h normal medium, fewer + = better", "description": "In this example, apart of the specific compounds obtained in Example 19 and Example 20 were selected for intracellular mutated lens protein (αB-crystallin R120G) aggregation inhibition experiment (experimental method was described in Chinese patent CN201580057679). The aggregation inhibition activities of compound I and compound II in the present invention on lens protein mutants were evaluated to screen a compound which was effective in treating related disease such as cataract.\nThe tumor cell line HeLa was selected as a host cell transfected with the mutant lens protein (αB-crystallin […]) expression plasmid, the medium was DMEM with […], and the culture conditions were 37° C., saturated humidity and 5% carbon dioxide cell incubator. Mycoplasma was negative. The transfection process is that the appropriate number of HeLa cells were inoculated on the pre-coated slides. When fully adherent cells grew to about 75% cell density, the expression vector was transfected with liposome. After 4 hours of transfection, the medium was changed to normal medium. Then the HeLa cells were cultured in the cell incubator for 13 hours to induce the expression of exogenous mutant lens protein. After changing the medium, the replaced new medium contained various compounds of the formula I and formula II of the present invention to be tested (DMSO was used as solvent in all mother fluid), wherein the final concentration of each compound was 10 μM, the negative control was 1.5% DMSO solvent, and the positive control was lanosterol (10 μM). The HeLa cells were treated with the medium containing the test compound, 1.5% DMSO solvent and lanosterol for 3.5 hours, respectively, and the normal fresh medium containing no DMSO, test compound or lanosterol was exchanged and the cells were cultured for another 6.5 h, then Anti-p62 antibody and DAPI were used for routine cellular immunofluorescence detection. The field of vision of three positions per slide was randomly selected, the ratio of cells containing aggregated crystalline proteins (lens protein aggregates) was calculated, and the effect of each test compound on intracellular aggregation of mutant lens proteins was finally determined, the results were shown in Table 19."}, "[4]": {"test_system": "diabetic metabolite cataract", "assay": "Therapeutic effect on diabetic metabolite cataract, streptozotocin model (Example 11)", "type": "in vivo, SD rats", "settings": "right eye of diabetic rat, pictures before and after 2 months of treatment (FIG. 25-29)"}, "cataract lens": {"test_system": "cataract lens", "settings": "direct administration to the eyeball or lens, primates; cited from earlier work"}, "[5]": {"target": "T2, wild-type αB lens protein aggregate (WT αB) (Homo sapiens, UniProt P02511)", "T2 sequence (P02511 1-175)": "T1 sequence (P02511 1-175 R120G) with G120R", "assay": "Dissolution of lens protein aggregates, ThT fluorescence (Example 22)", "type": "biochemical", "settings": "liposome form, final concentration 125 μM, 24 hours, versus blank liposomes (FIG. 33)", "description": "The experimental method was as follows: Inotodiol was used as test compound, and its dissolution effect on wild-type αB lens protein aggregate (WT αB) was measured, and lanosterol was used as positive control.\nIn the present example, the formulations of pharmaceutical composition in the test group and the control group were liposome, wherein the component of the formulation of test group was 40 mg of DPPC, 10 mg of cholesterol and 10 mg of test compound; the component of the formulation of positive control group was 40 mg of DPPC, 10 mg of cholesterol and 10 mg of lanosterol; the component of formulation of the blank control group was 40 mg of DPPC and 10 mg of cholesterol. […]\nThe analysis of compound concentration in the liposome formulation: The obtained liposome solution was demulsificated with 4 to 5 volumes of methanol solution to afford clear solution. The concentration of compound in the liposome was determined by HPLC method, and the chromatographic conditions are as follows. […] After the comparative analysis, the concentration of corresponding compound in the liposome preparation was determined.\nThe induction of protein aggregates is as follows. […] After the treatment, ThT fluorescence was used to detect the effect of different compounds on αB lens protein aggregates."}}, "note": "Positions count from the first letter of the chain named.", "data": [{"molecule": "CC(C)=CCC[C@@H](C)[C@H]1CC[C@@]2(C)C3=C(CC[C@]12C)[C@@]1(C)CC[C@H](O)C(C)(C)[C@@H]1CC3", "note": "[lanosterol, reference compound]", "values": [{"measurement": "appearance after heat storage", "setting": "[1]; 80° C. for 1 week, compared with 4° C.", "result": "one third of the lanosterol turned yellow"}, {"measurement": "purity after heat storage", "setting": "[1]; 80° C. for 2 weeks", "result": 32, "unit": "%"}, {"measurement": "appearance after heat storage", "setting": "[1]; 80° C. for 2 weeks, compared with 4° C.", "result": "All lanosterol turned yellow"}, {"measurement": "appearance after heat storage", "setting": "[1]; 80° C. for 1 day", "result": "the powder became hard and formed into a large piece"}, {"measurement": "content after heat storage", "setting": "[1]; 80° C. for 1 day, HPLC", "result": 73, "unit": "%"}, {"measurement": "content after heat storage", "setting": "[1]; 80° C. for 2 day, HPLC", "result": 48, "unit": "%"}, {"measurement": "content after heat storage", "setting": "[1]; 80° C. for 3 day, HPLC", "result": 44, "unit": "%"}, {"measurement": "initial experiment purity", "setting": "[1]; stored at 4° C., HPLC", "result": 96, "unit": "%"}, {"measurement": "cataract treatment effect", "setting": "cataract", "result": "has a cataract treatment effect on dogs only when combined with high-frequency intravitreal injection"}, {"measurement": "cortical turbidity area of eyes with traumatic cataract, transparency after administration", "setting": "traumatic cataract", "result": "could restore transparency of lens with slight turbidity, but no obvious reversal of the disease has been observed in severe cataract"}, {"measurement": "decrease of drug concentration in aqueous humor compared with initial concentration immediately after injection", "setting": "[2]", "result": "82%±14.7%"}, {"measurement": "Inhibitory effect (percentage of cells containing aggregated proteins)", "setting": "[3]", "result": "+++ (>60% of the cells in the field of vision contain protein aggregates)"}, {"measurement": "turbid area of lens / course of cataract after administration", "setting": "[4]", "result": "increased"}, {"measurement": "transparency of cataract lens", "setting": "cataract lens", "result": "does not restore or improve the transparency of cataract lens in primates"}, {"measurement": "ThT fluorescence signal of αB lens protein aggregates", "setting": "[5]", "result": "increased the ThT fluorescence signal"}]}]}
